Settings in all cases: Table 1
One test concerns the target PKC-β2 (Homo sapiens, UniProt P05771). Kind of test: PKC Enzyme Assay, beta-2 isozyme. The test is classed as biochemical. On the procedure: (§1) PKC enzymes=alpha, beta I, beta II, gamma, delta, epsilon, eta and zeta.
(§2) Assay components in a total volume of 250 μL are as follows:
(§3) For all the enzymes either histone type HL (Worthington) or myelin basic protein is used as substrate. The assay is started by addition of protein kinase C enzyme incubated at 30° C. for 10 minutes and stopped by adding 0.5 mL of cold trichloroacetic acid (Amresco) followed by 100 μL of 1 mg/mL bovine serum albumin (Sigma, St. Louis, Mo.). The precipitate is collected by vacuum filtration on glass fiber filters employing a TOMTEC™ filtration system and quantified by counting in a beta scintillation counter.

A further test deals with PKC-α (Homo sapiens, UniProt P17252). In words: PKC Enzyme Assay, alpha isozyme. The test is classed as biochemical. On the procedure:
as §1, §2, §3

A further test concerns the target PKC-β1 (Homo sapiens, UniProt P05771). Kind of test: PKC Enzyme Assay, beta-1 isozyme. It counts as biochemical. The method, then:
as §1, §2, §3

The target in a further test is T1, casein protein kinase II (Rattus norvegicus, UniProt P19139).
T1 construct: isolated from rat brain homogenate; from tissue; host or cells: rat brain homogenate
Kind of test: Casein Protein Kinase II Assay (CK-II). The test is classed as biochemical. On the procedure:
Casein Protein Kinase II Assay (CK-II)
The Casein Protein Kinase II Assay is described in Neurochem. […] The assay components are in a total volume of 250 μL: 20 mM Tris-HCl, pH 7.5, 5 mM sodium fluoride, 50 mg/mL Casein (Sigma, St. Louis, Mo.), 10 mM magnesium chloride (Sigma, St. Louis, Mo.), 10 μL DMSO or DMSO/inhibitor and 30 μm (gamma-32P) ATP (DuPont). Initiation of the reaction is performed by addition of casein protein kinase II (isolated from rat brain homogenate), incubated at room temperature for 10 minutes and stopped by the addition of 0.5 mL ice cold Trichloroacetic acid (Amresco) followed by 100 μL of 1 mg/mL bovine serum albumin (Sigma, St. Louis, Mo.). The precipitate is collected by vacuum filtration on glass fiber filters and quantified by counting in a beta scintillation counter.
Assay components in order of addition
10 μL or DMSO or DMSO/inhibitor
25 μL of AT32P in 300 μM magnesium chloride
40 μL of enzyme (undiluted)
Buffer prepared as follows:
(Final volume=3.5 mL: amount of 20 assays)

Test [1] deals with T2, cAMP-dependent kinase catalytic subunit (Bos taurus, UniProt P00517).
T2 construct: purchased Sigma, St. Louis, Mo; host or cells: bovine heart
In words: cAMP-Dependent protein Kinase Catalytic Subunit Assay. It counts as biochemical, bovine. The method, then: cAMP-Dependent protein Kinase Catalytic Subunit Assay (PEA) The Assay components are in a total volume of 250 μL: 20 mM HEPES (Sigma, St. Louis, Mo.) buffer pH 7.5, 200 μg/mL histone type HL (Worthington), 10 mM magnesium chloride (Sigma, St. […] The reaction is initiated by addition of bovine heart cAMP-dependent kinase catalytic subunit (Sigma, St. Louis, Mo.), incubated to 30° C. for 10 minutes and stopped by adding 0.5 mL ice cold Trichloroacetic acid (Amresco) followed by 100 μL of 1 mg/mL bovine serum albumin (Sigma). The precipitate is collected by vacuum filtrated on glass fiber filters employing a TOMTEC™ and quantified by counting in a beta scintillation counter. This assay is done identical to the protein kinase C (PKC) enzyme assay except that no phospholipids or diacylglycerol are employed in the assay and the histone substrate is specific for the cAMP-dependent catalytic subunit enzyme.

Test [2] has as its target calcium calmodulin dependent protein kinase. In words: Calcium Calmodulin Dependent Protein Kinase Assay (CAM). The test is classed as biochemical, rat. On the procedure:
Calcium Calmodulin Dependent Protein Kinase Assay (CAM)
The reaction is initiated by the addition of calcium calmodulin dependent protein kinase (isolated from rat brain homogenate), incubated at room temperature for 10 minutes and stopped by adding 0.5 mL ice cold trichloroacetic acid (Amresco) followed by 100 μL of 1 mg/mL bovine serum albumin (Sigma, St. Louis, Mo.). The precipitate is collected by vacuum filtration on glass fiber filters and quantified by counting in a beta scintillation counter.
25 μL calmodulin (250 μg/mL)
10 μL DMSO or DMSO/inhibitor

Structures can show the parent of a compound that is named as a salt. Bounds are passed on as bounds.

Chain of PKC-β1 (P05771 whole entry): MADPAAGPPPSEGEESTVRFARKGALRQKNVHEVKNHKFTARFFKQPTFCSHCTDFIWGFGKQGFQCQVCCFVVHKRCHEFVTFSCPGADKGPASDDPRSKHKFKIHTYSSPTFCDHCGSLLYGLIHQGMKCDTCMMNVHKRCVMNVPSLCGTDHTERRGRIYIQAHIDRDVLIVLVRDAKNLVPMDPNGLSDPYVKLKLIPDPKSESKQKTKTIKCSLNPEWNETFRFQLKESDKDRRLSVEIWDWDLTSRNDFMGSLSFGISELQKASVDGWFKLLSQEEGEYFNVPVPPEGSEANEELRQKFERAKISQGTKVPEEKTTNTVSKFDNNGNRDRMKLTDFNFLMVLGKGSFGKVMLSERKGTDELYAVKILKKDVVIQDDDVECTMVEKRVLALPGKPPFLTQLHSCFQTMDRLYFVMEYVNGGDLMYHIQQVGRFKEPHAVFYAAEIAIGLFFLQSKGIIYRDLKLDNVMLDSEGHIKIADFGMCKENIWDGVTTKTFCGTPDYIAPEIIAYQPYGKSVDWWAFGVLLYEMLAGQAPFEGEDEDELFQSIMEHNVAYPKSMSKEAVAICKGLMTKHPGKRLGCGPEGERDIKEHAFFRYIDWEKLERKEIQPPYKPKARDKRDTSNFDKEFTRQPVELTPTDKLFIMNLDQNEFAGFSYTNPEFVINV
Chain of PKC-β2 (P05771 1-673 isoform P05771-2): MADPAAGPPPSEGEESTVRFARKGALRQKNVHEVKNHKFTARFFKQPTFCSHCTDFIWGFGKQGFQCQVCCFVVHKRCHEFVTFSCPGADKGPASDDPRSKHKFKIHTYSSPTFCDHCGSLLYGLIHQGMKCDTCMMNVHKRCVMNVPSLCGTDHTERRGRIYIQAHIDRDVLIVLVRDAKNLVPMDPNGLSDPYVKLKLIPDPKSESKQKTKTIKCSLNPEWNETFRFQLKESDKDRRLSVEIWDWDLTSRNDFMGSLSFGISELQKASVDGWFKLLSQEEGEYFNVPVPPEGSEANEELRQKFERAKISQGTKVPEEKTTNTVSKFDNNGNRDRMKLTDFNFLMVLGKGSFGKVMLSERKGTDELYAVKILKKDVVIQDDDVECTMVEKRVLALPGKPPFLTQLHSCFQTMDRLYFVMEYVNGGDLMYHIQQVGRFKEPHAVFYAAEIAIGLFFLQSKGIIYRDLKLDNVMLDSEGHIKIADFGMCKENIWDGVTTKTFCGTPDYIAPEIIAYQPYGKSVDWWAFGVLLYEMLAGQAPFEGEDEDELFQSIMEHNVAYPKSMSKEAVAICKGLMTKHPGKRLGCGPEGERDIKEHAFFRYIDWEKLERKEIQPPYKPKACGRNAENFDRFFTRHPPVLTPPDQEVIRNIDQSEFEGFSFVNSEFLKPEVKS
T1 sequence (P19139 whole entry): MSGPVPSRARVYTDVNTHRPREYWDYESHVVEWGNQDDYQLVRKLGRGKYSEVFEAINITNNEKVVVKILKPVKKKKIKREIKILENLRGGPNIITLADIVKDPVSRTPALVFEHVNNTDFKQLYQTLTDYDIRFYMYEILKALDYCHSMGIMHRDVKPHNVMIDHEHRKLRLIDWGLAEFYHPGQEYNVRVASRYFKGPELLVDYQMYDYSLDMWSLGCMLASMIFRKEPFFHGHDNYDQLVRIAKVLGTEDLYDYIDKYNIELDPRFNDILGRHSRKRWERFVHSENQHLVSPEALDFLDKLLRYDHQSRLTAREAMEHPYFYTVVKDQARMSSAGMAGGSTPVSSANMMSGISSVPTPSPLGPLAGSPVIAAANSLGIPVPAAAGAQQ
T1 sequence (P67874 2-215 partner limits assumed): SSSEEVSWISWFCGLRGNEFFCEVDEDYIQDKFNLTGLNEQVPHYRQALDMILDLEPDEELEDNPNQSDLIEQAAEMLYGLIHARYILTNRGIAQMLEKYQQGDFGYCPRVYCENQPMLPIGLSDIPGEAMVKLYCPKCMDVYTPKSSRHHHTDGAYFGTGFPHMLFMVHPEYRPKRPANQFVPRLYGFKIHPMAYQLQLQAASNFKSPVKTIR

Broadly, the IC50 is the point on the concentration scale where inhibition reaches its midpoint. For the compound `O=C1NC(=O)C2=C1c1cn(c3ccccc13)CCOCCn1cc2c2ccccc21` [Example 1, 3,4-[(N,N'-1,1'-ethoxyethyl)-bis-(3,3'-indolyl)]-1H-pyrrole-2,5-dione], the half-maximal inhibitory concentration (IC50) was 40 nM at PKC-β2, 1000 nM against PKC-α, 50 nM at PKC-β1 and more than 100000 nM against casein protein kinase II.
Regarding `CN(C)C[C@H]1CCn2cc(c3ccccc32)C2=C(C(=O)NC2=O)c2cn(c3ccccc23)CCO1` [Example 5r], the IC50 in test [1] was more than 100000 nM; in test [2], 5000 nM; against casein protein kinase II, more than 100000 nM.
`CN(C)C[C@@H]1CCn2cc(c3ccccc32)C2=C(C(=O)NC2=O)c2cn(c3ccccc23)CCO1` [Example 5s]: the figures for the IC50 (in test [1]; in test [2]; at casein protein kinase II) were more than 100000 nM, 8000 nM and more than 100000 nM, respectively.
On to `O=C1NC(=O)C2=C1c1cn(c3ccccc13)CCOCC(CO)CCn1cc2c2ccccc21` (centres unmarked) [Example 6], for which the 50% inhibitory concentration (IC50) on PKC-β2 amounted to 35 nM; against PKC-α, 4200 nM; against PKC-β1, 43 nM.
The like results for `O=C1NC(=O)C2=C1c1cn(c3ccccc13)CCOCC(CN1CCCC1)CCn1cc2c2ccccc21` (centres unmarked) [Example 7, 3,4-[(N,N'-1,1'-(2"-ethoxy-(3"'((O)-methylene)-4"'-(N-pyrrolidino)-butane)-bis-(3,3'-indolyl)]-1(H)-pyrrole-2,5-dione hydrochloride salt] were, in that order, 180 nM, more than 5000 nM and 150 nM.
The like results for `CN(C)CC1CCn2cc(c3ccccc32)C2=C(C(=O)NC2=O)c2cn(c3ccccc23)CCOC1` (centres unmarked) [Example 8, 3,4-[(N,N'-1,1'-(2"-ethoxy-(3"'((O)-methylene)-4"'-(N,N-dimethylamino)-butane)-bis-(3,3'-indolyl)]-1(H)-pyrrole-2,5-dione hydrochloride salt] were, in that order, 32 nM, 2500 nM and 37 nM.
As for `O=C1NC(=O)C2=C1c1cn(c3ccccc13)CCCOC(CN1CCCC1)CCn1cc2c2ccccc21` (centres unmarked) [Example 12], the IC50 was 500 nM on PKC-β2; 19000 nM on PKC-α; 600 nM against PKC-β1; more than 100000 nM in test [1]; 93000 nM in test [2]; more than 100000 nM at casein protein kinase II.
As to `O=C1NC(=O)C2=C1c1cn(c3ccccc13)CCCOC(CNCc1ccccc1)CCn1cc2c2ccccc21` (centres unmarked) [Example 13], the half-inhibitory concentration (IC50) was 940 nM at PKC-β2, more than 5000 nM against PKC-α and 1900 nM on PKC-β1.
`O=C1NC(=O)C2=C1c1cn(c3ccccc13)CCCOC(CNS(=O)(=O)c1ccccc1)CCn1cc2c2ccccc21` (centres unmarked) [Example 15]: the half-inhibitory concentration (IC50) is 830 nM on PKC-β2, more than 5000 nM against PKC-α and 2900 nM at PKC-β1.
The matching figures for `O=C(NCC1CCn2cc(c3ccccc32)C2=C(C(=O)NC2=O)c2cn(c3ccccc23)CCCO1)OCc1ccccc1` (centres unmarked) [Example 16]: 2300 nM, more than 5000 nM and 3200 nM.
Turning to `O=C1NC(=O)C2=C1c1cn(c3ccccc13)CCO[C@@H](CNCc1ccccc1)CCn1cc2c2ccccc21` [Example 18r], the IC50 is 87 nM at PKC-β2; 3400 nM at PKC-α; 83 nM against PKC-β1; more than 100000 nM in test [1]; 8800 nM in test [2]; more than 100000 nM against casein protein kinase II.
With `O=C1NC(=O)C2=C1c1cn(c3ccccc13)CCO[C@H](CNCc1ccccc1)CCn1cc2c2ccccc21` [Example 18s], the IC50 on PKC-β2 was 300 nM; on PKC-α, 6400 nM; at PKC-β1, 380 nM; in test [1] it was more than 100000 nM; against casein protein kinase II, more than 100000 nM.
In the case of `O=C1NC(=O)C2=C1c1cn(c3ccccc13)CCO[C@H](CNS(=O)(=O)c1ccccc1)CCn1cc2c2ccccc21` [Example 21s], the 50% inhibitory concentration (IC50) against PKC-β2 amounted to 44 nM; on PKC-β1, 170 nM.
Turning to `CN1CCN(C[C@@H]2CCn3cc(c4ccccc43)C3=C(C(=O)NC3=O)c3cn(c4ccccc34)CCO2)CC1` [Example 23s], the IC50 was 240 nM against PKC-β2, 1800 nM at PKC-α and 300 nM on PKC-β1.
As to `O=C1NC(=O)C2=C1c1cn(c3ccccc13)CCO[C@H](CN1CCOCC1)CCn1cc2c2ccccc21` [Example 24s], the values for the IC50 against PKC-β2, on PKC-α and on PKC-β1 were 380 nM, 3500 nM and 490 nM, respectively.
As to `O=C(NC[C@H]1CCn2cc(c3ccccc32)C2=C(C(=O)NC2=O)c2cn(c3ccccc23)CCO1)OCc1ccccc1` [Example 25r], the concentration for half-maximal inhibition (IC50) against PKC-β2 was 120 nM; against PKC-α, 94000 nM; against PKC-β1, 43 nM; in test [1], more than 100000 nM; in test [2], 22000 nM; at casein protein kinase II, more than 100000 nM.
For the compound `O=C1NC(=O)C2=C1c1cn(c3ccccc13)CCOc1ccccc1Cn1cc2c2ccccc21` [Example 27, 3,4-[(N,N'-1,1'-(2"-ethoxy)-benzyl)-bis-(3,3'-indolyl)]-1(H) -pyrrole-2,5-dione hydrochloride], the IC50 against PKC-β2 was determined as 26 nM; at PKC-α, 2200 nM; against PKC-β1 it was 49 nM.
On to `O=C(OCc1ccccc1)OCC1CCCn2cc(c3ccccc32)C2=C(C(=O)NC2=O)c2cn(c3ccccc23)CC1` (centres unmarked) [Example 29, 3,4-[(N,N'-1,1'-(3"-(benzylcarbonate)methylene)hexane)-bis-(3,3'-indolyl)]-1H-pyrrole-2,5-dione], for which the IC50 at PKC-β2 was 800 nM; at PKC-α, more than 100000 nM; against PKC-β1 it was 700 nM.
Consider `O=C1NC(=O)C2=C1c1cn(c3ccccc13)CCC[C@@H](CO)CCn1cc2c2ccccc21` [Example 31r], for which the IC50 turned out to be 8 nM at PKC-β2, 240 nM on PKC-α and 19 nM at PKC-β1.
Take `CN(C)C[C@H]1CCCn2cc(c3ccccc32)C2=C(C(=O)NC2=O)c2cn(c3ccccc23)CC1` [Example 40s, (S)-3,4-[(N,N'-1,1'-(3"-(N,N-dimethylamine)methylene)-hexane)-bis-(3,3'-indolyl)]-1H-pyrrole-2,5-dione hydrochloride salt]: the IC50 is 400 nM against PKC-α, more than 100000 nM in test [1], 41000 nM in test [2] and more than 100000 nM at casein protein kinase II.
For `O=C1NC(=O)C2=C1c1cn(c3ccccc13)CCCCCCCCn1cc2c2ccccc21` [Example 44], the IC50 against PKC-β2 is 2000 nM; against PKC-α, more than 100000 nM; against PKC-β1 it was 2000 nM.
Turning to `O=C1NC(=O)C2=C1c1cn(c3ccccc13)CCC(CO)CCn1cc2c2ccccc21` [Example 51, 3,4-[(N,N'-1,1'-(3"-(hydroxy)methylene)pentan)-bis-(3,3'-indolyl)]-1(H)-pyrrole-2,5-dione], the IC50 worked out at 500 nM on PKC-β2, 49000 nM on PKC-α and 500 nM on PKC-β1.
In the case of `CN(C)CC1CCn2cc(c3ccccc32)C2=C(C(=O)NC2=O)c2cn(c3ccccc23)CC1` [Example 54, 3,4-[(N,N'-1,1'-(3"-(N,N-(dimethylamino)methylene)pentanyl)-bis-(3,3'-indolyl)]-1(H)-pyrrole-2,5-dione hydrochloride], the half-inhibitory concentration (IC50) against PKC-β2 worked out at 4 nM; at PKC-α it was 160 nM; against PKC-β1, 5 nM.
Take `O=C1NC(=O)C2=C1c1cn(c3ccccc13)CCCOC(CNCc1ccccc1)CCn1cc2c2ccccc21` (centres unmarked) [Example 55]: the IC50 on PKC-β2 turned out to be 380 nM; against PKC-β1, 410 nM.

These data come from patent publication US5696108A, “Protein kinase C inhibitors” (Eli Lilly and Company, priority 1996, dated 1997).
